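Five concentrations, 48 hours, 96-well plates. Definition used: TGI = concentration required for complete inhibition of growth.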
Columns and labels:
Test in all cases: NCI anticancer screen, dose series, 48 h
SF-539 CNS = test system: SF-539 CNS
NCI-H226 lung = test system: NCI-H226 lung
T-47D breast = test system: T-47D breast
HOP-62 NSCLC = test system: HOP-62 NSCLC
SW-620 colon = test system: SW-620 colon
SK-MEL-2 melanoma = test system: SK-MEL-2 melanoma
DU-145 prostate = test system: DU-145 prostate
PC-3 prostate = test system: PC-3 prostate
OVCAR-4 ovarian = test system: OVCAR-4 ovarian
M14 melanoma = test system: M14 melanoma
SNB-19 CNS = test system: SNB-19 CNS
HCT-116 colon = test system: HCT-116 colon
NCI-H522 lung = test system: NCI-H522 lung
MALME-3M melanoma = test system: MALME-3M melanoma
HCC-2998 colon = test system: HCC-2998 colon
SK-MEL-28 melanoma = test system: SK-MEL-28 melanoma
OVCAR-3 ovarian = test system: OVCAR-3 ovarian
EKVX NSCLC = test system: EKVX NSCLC
SN12C renal = test system: SN12C renal
786-0 renal = test system: 786-0 renal

| SMILES | TGI (SF-539 CNS) | TGI (NCI-H226 lung) | TGI (T-47D breast) | TGI (HOP-62 NSCLC) | TGI (SW-620 colon) | TGI (SK-MEL-2 melanoma) | TGI (DU-145 prostate) | TGI (PC-3 prostate) | TGI (OVCAR-4 ovarian) | TGI (M14 melanoma) | TGI (SNB-19 CNS) | TGI (HCT-116 colon) | TGI (NCI-H522 lung) | TGI (MALME-3M melanoma) | TGI (HCC-2998 colon) | TGI (SK-MEL-28 melanoma) | TGI (OVCAR-3 ovarian) | TGI (EKVX NSCLC) | TGI (SN12C renal) | TGI (786-0 renal) |
| --- | --- | --- | --- | --- | --- | --- | --- | --- | --- | --- | --- | --- | --- | --- | --- | --- | --- | --- | --- | --- |
| O=[N+]([O-])c1ccccc1N=Nc1c(O)sc2ccccc12 | > 100 µM | > 100 µM | > 100 µM | > 100 µM | > 100 µM | > 100 µM | > 100 µM | > 100 µM | 98.4 µM | > 100 µM | > 100 µM | > 100 µM | > 100 µM | > 100 µM | > 100 µM | > 100 µM | > 100 µM | > 100 µM | – | – |
| CC[C@]12C=CCN3CC[C@@]4(c5ccc(OC)cc5N(C)[C@H]4[C@@](O)(C(=O)OC)[C@@H]1OC(C)=O)[C@@H]32 | > 200 µM | > 200 µM | – | > 200 µM | > 200 µM | > 200 µM | – | – | > 63.2 µM | – | > 200 µM | > 200 µM | > 200 µM | > 200 µM | > 200 µM | > 200 µM | > 112 µM | > 200 µM | > 200 µM | – |
| CCOCNC(=O)N(COCC)COCC | > 100 µM | > 100 µM | – | > 100 µM | > 100 µM | > 100 µM | – | – | – | > 100 µM | > 100 µM | > 100 µM | > 100 µM | > 100 µM | > 100 µM | > 100 µM | > 100 µM | > 100 µM | > 100 µM | – |
| Cc1cc(NS(=O)(=O)c2ccc(N=Nc3c(O)c(C(=O)O)cc4ccccc34)cc2)nc(C)n1 | > 100 µM | > 100 µM | – | > 100 µM | > 100 µM | > 100 µM | – | > 100 µM | > 100 µM | > 100 µM | > 100 µM | > 100 µM | > 100 µM | > 100 µM | > 100 µM | > 100 µM | > 100 µM | > 100 µM | – | > 100 µM |
| CC(=O)[C@]1(O)Cc2c(O)c3c(c(O)c2C(OC2OC(C)C(O)C(O)C2F)C1)C(=O)c1ccccc1C3=O (some centres not stated) | 0.374 µM | 0.341 µM | 7.8 µM | 0.629 µM | – | 2.88 µM | 45.8 µM | 3.3 µM | 11.2 µM | 1.55 µM | – | 6.83 µM | 2.28 µM | 1.48 µM | 2.3 µM | 2.7 µM | 6.64 µM | 14.7 µM | 12.4 µM | > 37.1 µM |
| Oc1ccc2ccccc2c1N=Nc1ccc(F)cc1 | > 100 µM | – | – | > 100 µM | > 100 µM | > 100 µM | – | – | > 100 µM | > 100 µM | > 100 µM | > 100 µM | > 100 µM | > 100 µM | > 100 µM | > 100 µM | > 100 µM | – | > 100 µM | > 100 µM |
| CC(C)CCN=c1cc2n(-c3ccc(Cl)cc3)c3ccccc3nc-2cc1Nc1ccc(Cl)cc1 | 32.1 µM | 20.7 µM | – | 26.1 µM | > 70.3 µM | 12.3 µM | – | – | 18.4 µM | – | > 100 µM | 11.4 µM | 7.06 µM | 31 µM | 18.1 µM | > 82.8 µM | 6.61 µM | > 53 µM | 58.1 µM | – |
| Cc1ccc2nc3ccccc3c(C3C4C(=O)N(c5ccc(Br)cc5Cl)C(=O)C4ON3C(C(N)=O)c3ccccc3)c2c1 (configuration not stated) | > 25 µM | > 25 µM | > 25 µM | > 25 µM | > 25 µM | > 25 µM | > 25 µM | > 25 µM | > 25 µM | > 25 µM | > 25 µM | > 25 µM | > 25 µM | > 25 µM | – | > 25 µM | > 25 µM | 15.5 µM | 23.2 µM | > 25 µM |
| CC[N+](C)(CC)Cc1ccccc1[N+](=O)[O-] | > 100 µM | > 100 µM | > 100 µM | > 100 µM | > 100 µM | > 100 µM | > 100 µM | > 100 µM | > 100 µM | > 100 µM | – | > 100 µM | > 100 µM | > 100 µM | – | > 100 µM | 73.7 µM | > 100 µM | > 100 µM | > 100 µM |
| O=c1c2ccccc2nnn1-c1n[nH]c2ccccc12 | > 100 µM | – | > 100 µM | > 100 µM | > 100 µM | > 100 µM | > 100 µM | > 100 µM | > 100 µM | > 100 µM | > 100 µM | > 100 µM | > 100 µM | > 100 µM | > 100 µM | > 100 µM | > 100 µM | > 100 µM | > 100 µM | > 100 µM |
| O=C(NCCCNC(=O)c1ccc2cc(O)c(O)cc2c1)c1ccc2cc(O)c(O)cc2c1 | 35.6 µM | 57.8 µM | 90.6 µM | > 100 µM | > 100 µM | 34 µM | 82.2 µM | > 100 µM | 45.4 µM | > 100 µM | 56.5 µM | > 100 µM | > 100 µM | > 100 µM | 50.9 µM | > 100 µM | – | > 100 µM | – | – |
| C[N+](C)(N)CCC[N+](C)(C)N | > 100 µM | > 100 µM | > 100 µM | > 100 µM | > 100 µM | > 100 µM | > 100 µM | > 100 µM | > 100 µM | > 100 µM | > 100 µM | > 100 µM | > 100 µM | > 100 µM | – | > 100 µM | > 100 µM | > 100 µM | > 100 µM | > 100 µM |
| CC(=O)OC[C@H]1[C@@H]2C(CC[C@]13CO3)OC(=O)CC(C)[C@]2(C)CCc1ccoc1 (some centres not stated) | > 100 µM | > 100 µM | > 100 µM | > 100 µM | > 100 µM | – | > 100 µM | > 100 µM | > 100 µM | > 100 µM | > 100 µM | > 100 µM | > 100 µM | > 100 µM | > 100 µM | > 100 µM | > 100 µM | > 100 µM | > 100 µM | – |
| COc1ccc(-c2c(C#N)c(NC(=S)NC(=O)c3ccccc3)nc3c2CCCC3)cc1OC | > 100 µM | – | 89 µM | > 100 µM | > 100 µM | – | > 100 µM | > 100 µM | > 100 µM | > 100 µM | > 100 µM | > 100 µM | – | > 100 µM | – | > 100 µM | > 100 µM | 70.4 µM | > 100 µM | – |
| CN(CCCNc1ccc2ncn3c4ccccc4c(=O)c1c23)CCCN1C(=O)c2cccc3cc([N+](=O)[O-])cc(c23)C1=O | 0.149 µM | 1.55 µM | 3.42 µM | 2.15 µM | – | 6.88 µM | – | – | 2.75 µM | 1.69 µM | 2.28 µM | 0.02 µM | 1.48 µM | – | 0.0916 µM | 2.86 µM | 2.29 µM | 2.16 µM | 1.78 µM | – |
| CN(C)CC(CN(C)C)c1ccccn1 | > 100 µM | > 100 µM | – | > 100 µM | > 100 µM | > 100 µM | – | > 100 µM | > 100 µM | > 100 µM | > 100 µM | > 100 µM | > 100 µM | > 100 µM | – | > 100 µM | > 100 µM | > 100 µM | > 100 µM | > 100 µM |
| NCCc1nc(-c2nc(C(=O)O)cs2)cs1 | > 100 µM | – | > 100 µM | > 100 µM | > 100 µM | > 100 µM | > 100 µM | > 100 µM | > 100 µM | > 100 µM | > 100 µM | > 100 µM | > 100 µM | > 100 µM | – | > 100 µM | > 100 µM | > 100 µM | > 100 µM | > 100 µM |
| CC[C@@H]1/C=C/C=C/C[C@H](C)[C@@H](O)[C@](C)(O)C(=O)[C@H](C)[C@@H](O)[C@H](C)C(=O)[C@H](C)[C@@H](O)[C@H](C)/C=C/C(=O)O[C@H]2[C@@H](C)[C@@H](CC1)O[C@]1(O[C@H](CC(C)O)[C@H](C)CC1=O)[C@@H]2C (some centres not stated) | 8.75 µM | – | > 25 µM | 8.41 µM | > 25 µM | 9.61 µM | 8.78 µM | 6.41 µM | > 19.7 µM | 9.41 µM | > 25 µM | 6.26 µM | 6.59 µM | 14.2 µM | 8 µM | > 19.6 µM | 13.1 µM | 5.9 µM | 8.72 µM | 12.1 µM |
